Test results: PMC8899614, “Triterpenoid Saponins From the Fruit of Acanthopanax senticosus (Rupr. & Maxim.) Harms” (Frontiers in Chemistry, 2022)
Like-named read-outs stand apart in the source and are kept apart here.

Experiments:
BV2 microglia = test: Cytotoxicity on BV2 microglia by CCK-8 assay; settings: read-out: Cytotoxic activities on BV2 cells, IC50; BV2 cells, 24 h, CCK-8, OD 450 nm, repeated three times
Procedure: (§1) A drug-containing medium (0, 50, 100, 200, 400, and 600 μM) was added to each well of the administration group, and an equal volume of medium was also added to the blank group, and they were incubate at 37°C and 5% CO2 for 24 h. After the culture, 10 μl of CCK-8 was added to each well and incubated for 1–4 h at 37°C and 5% CO2. The absorbance (OD) value of each well at 450 nm was detected with a microplate reader, repeating three times, and its IC50 value was calculated.

[1] = system: NO production in LPS-induced BV2 microglia; test: NO production inhibition in LPS-induced BV2 microglia (Griess reaction); type: cell-based; settings: for IC50: read-out: Inhibitory effects on NO in LPS-induced BV-2 cells, IC50; for Inhibitory effect on neuroinflammation (in words): LPS-induced BV2 microglia neuroinflammation model
Procedure: The BV2 microglia cells were plated into a 96-well plate. After adding LPS (1 μg/ml) to each well for 12 h, it was treated with or without compounds of various concentrations (0, 100, 200, 300, 400, and 600 μM) for 12 h. The NO production in the supernatant was measured by the Griess reaction. The absorbance at 570 nm was measured using a microplate reader. The NO concentration and the inhibitory rate were calculated through a calibration curve. Quercetin was used as the positive control. Experiments were repeated three times.

[2] = Cytotoxicity on BV2 microglia by CCK-8 assay; settings: mouse, BV2 microglia cells
Procedure: as §1

[3] = LPS 1 μg/ml, Griess reaction, n = 3, x ± s, IC50 > 100 μM deemed inactive

Compound	IC50 [1, 3] [µM]	IC50 ([1]; Mus musculus, BV-2) [µM]	IC50 (BV2 microglia) [µM]	Inhibitory effect on neuroinflammation (in words) [1]	IC50 at 24 h [2] [µM]
3-O-β-D-(6′-O-methyl-glucuronopyranosyl) oleanolic acid [Compound 16]	–	–	102 ± 9.77	moderate inhibitory effects on neuroinflammation	–
3-O-β-D-glucuronopyranosyl-3β,16α-dihydroxyolean-12-en-28-oic acid [Compound 10]	–	–	215 ± 20.2	moderate inhibitory effects on neuroinflammation	–
3-[(O-β-D-glucopyranosyl-(1→3)-α-L-arabinopyranosyl)oxy]-30- noroleana-12,20(29)-dien-28-oic acid [Compound 29]	> 100	–	127 ± 10.6	–	–
CC1(CO)CCC2(C(=O)O)CCC3(C)C(=CCC4C5(C)CCC(OC6OCC(O)C(OC7OC(CO)C(O)C(O)C7O)C6O)C(C)(C)C5CCC43C)C2C1 (stereo not drawn) [Compound 1, 3-O-β-glucopyranosyl-(1→3)-β-arabinopyranosyl-29-hydroxy-olean-12-en-28-oic acid]	–	> 100	–	–	143 ± 10.9
CCOC(=O)C1OC(OC2CCC3(C)C(CCC4(C)C3CC=C3C5CC(C)(C)CCC5(C(=O)OC5OC(CO)C(O)C(O)C5O)CCC34C)C2(C)CO)C(O)C(O)C1O [Compound 2, 3-O-β-D-6′-ethyl-glucuronopyranosyl-23-hydroxy-olean-12-en-28-β-D-glucopyranosyl]	–	> 100	–	–	157 ± 12.7
CC1OC(OC2C(OC3CCC4(C)C(CCC5(C)C4CC=C4C6CC(C)(O)CCC6(C(=O)O)CCC45C)C3(C)C)OCC(O)C2O)C(O)C(O)C1O [Compound 3, 3β-[(α-L-rhamnopyranosyl-(1→2)-α-L-arabinopyranosyl)oxy]-20α,30-dihydroxy-norolean-12-en-28-oic acid]	–	> 100	–	–	150 ± 13.6
CC1(C(=O)O)CCC2(C(=O)O)CCC3(C)C(=CCC4C5(C)CCC(OC6OCC(O)C(O)C6OC6OC(CO)C(O)C(O)C6O)C(C)(C)C5CCC43C)C2C1 [Compound 4, 3β-[(O-β-D-glucopyranosyl-(1→2)-α-L-arabinopyranosyl)oxy]olean12-ene-28,29-dioic acid]	–	> 100	–	–	246 ± 21.2
COC(=O)C1OC(OC2CCC3(C)C(CCC4(C)C3CCC3C5=CC(C)(C)CCC5(C(=O)O)CCC34C)C2(C)CO)C(O)C(O)C1O [Compound 5, 3β,23-dihydroxyolean-18-en-28-oic acid 3-O-β-D-glucuronopyranoside-6′-O-methyl ester]	–	< 100	–	moderate inhibitory effects on neuroinflammation	236 ± 20.2
CC1(C)CC[C@]2(C(=O)O)CC[C@]3(C)C(=CC[C@@H]4[C@@]5(C)CC[C@H](O[C@@H]6OC[C@H](O)[C@H](O)[C@H]6O)[C@@](C)(CO)[C@@H]5CC[C@]43C)[C@@H]2C1 [Compound 7, hederagenin glycosides 3-O-α-L-arabinopyranoside]	> 100	–	124 ± 10.6	–	–
CC1(C)CCC2(C(=O)O)CCC3(C)C(=CCC4C5(C)CCC(OC6OCC(O)C(OC7OC(CO)C(O)C(O)C7O)C6O)C(C)(C)C5CCC43C)C2C1 [Compound 21, oleanolic acid 3-O-β-D-glucopyranosyl (1→3)-α-L-arabinopyranoside]	–	–	306 ± 28	–	–
CC1OC(OC2C(OC3CCC4(C)C(CCC5(C)C4CC=C4C6CC(C)(C)CCC6(C(=O)OC6OC(CO)C(O)C(O)C6O)CCC45C)C3(C)C)OCC(O)C2O)C(O)C(O)C1O [Compound 26, oleanolic acid 3-O-α-L-rhamnopyranosyl(1→2)-α-L-arabinopyranosyl-28-O-β-D-glucopyranosyl ester]	–	–	160 ± 13.5	–	–
HN-saponin D1 [Compound 6]	> 100	–	108 ± 8.24	–	–
elatoside G [Compound 12]	–	–	264 ± 22.9	moderate inhibitory effects on neuroinflammation	–
hederagenin-3-O-β-D- glucuronopyranoside 6′-O-methyl ester [Compound 13]	–	–	–	moderate inhibitory effects on neuroinflammation	–

The next lines start with results.

IC50 [1, 3] [µM]	IC50 ([1]; Mus musculus, BV-2) [µM]	Compound	IC50 (BV2 microglia) [µM]	Inhibitory effect on neuroinflammation (in words) [1]	IC50 at 24 h [2] [µM]
> 100	–	3-O-6′-O-methyl-β-D-glucuronopy-ranoside of gypsogenin [Compound 15]	157 ± 11	–	–
> 100	–	3-O-α-arabinopyranosyl-(1→2)-β-glucopyranoside-30-norolean-12,20(29)-dien-28-oic acid [Compound 28]	565 ± 48	–	–
> 100	–	3-O-α-rhamnopyranose- (1→2)-α-arabinopyranosyl-29-hydroxy-olean-12-en-28-oic acid [Compound 17]	235 ± 21.1	–	–
> 100	–	CC1(C)CC[C@]2(C(=O)O)CC[C@]3(C)C(=CC[C@@H]4[C@@]5(C)CC[C@H](O[C@@H]6O[C@H](C(=O)O)[C@@H](O)[C@H](O)[C@H]6O)C(C)(C)[C@@H]5CC[C@]43C)[C@@H]2C1 [Compound 8, oleanolic acid 3-O-β-D-glucuronopyranoside]	107 ± 9.59	–	–
> 100	–	CC1(C)CC[C@]2(C(=O)O)CC[C@]3(C)C(=CC[C@@H]4[C@@]5(C)CCC(O[C@@H]6O[C@H](C(=O)O)[C@@H](O)[C@H](O)[C@H]6O)[C@@](C)(C=O)[C@@H]5CC[C@]43C)C2C1 (stereo partly shown) [Compound 11, gypsogenin 3-O-glucuronide]	402 ± 39.5	–	–
> 100	–	C[C@@H]1O[C@@H](O[C@H]2[C@H](O[C@H]3CC[C@]4(C)[C@H]5CC=C6[C@@H]7CC(C)(C)CC[C@]7(C(=O)O)CC[C@@]6(C)[C@]5(C)CC[C@H]4C3(C)C)OC[C@H](O)[C@@H]2O)[C@H](O)[C@H](O)[C@H]1O [Compound 18, 3-O-[α-L-rhamnopyranosyl-(1→2)-α-L-arabinopyranosyl] oleanolic acid]	204 ± 19.8	–	–
> 100	–	CC1(C)CC[C@]2(C(=O)O[C@@H]3O[C@H](CO)[C@@H](O)[C@H](O)[C@H]3O)CC[C@]3(C)C(=CC[C@@H]4[C@@]5(C)CC[C@H](O[C@@H]6OC[C@H](O)[C@H](O)[C@H]6O)[C@@](C)(CO)[C@@H]5CC[C@]43C)[C@@H]2C1 [Compound 19, HN-saponin F]	466 ± 35.1	–	–
> 100	–	CC1(C)CC[C@]2(C(=O)O)CC[C@]3(C)C(=CC[C@@H]4[C@@]5(C)CC[C@H](O[C@@H]6OC[C@H](O)[C@H](O)[C@H]6O[C@@H]6O[C@H](CO)[C@@H](O)[C@H](O)[C@H]6O)C(C)(C)[C@@H]5CC[C@]43C)[C@@H]2C1 [Compound 20, saponin PE]	136 ± 10.6	–	–
> 100	–	CC1(C)CC[C@]2(C(=O)O)CC[C@]3(C)C(=CC[C@@H]4[C@@]5(C)CC[C@H](O[C@@H]6O[C@H](CO)[C@@H](O)[C@H](O)[C@H]6O[C@@H]6O[C@H](CO)[C@@H](O)[C@H](O)[C@H]6O)C(C)(C)[C@@H]5CC[C@]43C)[C@@H]2C1 [Compound 24, 3-O-β-D-glucopyranosyl-(1→2)-β-D-glucopyranosyl oleanolic acid]	189 ± 15.2	–	–
–	10.5 ± 1.07	O=c1c(O)c(-c2ccc(O)c(O)c2)oc2cc(O)cc(O)c12 [Quercetin, reference compound]	–	–	–
> 100	–	HN-saponin K [Compound 9]	241 ± 18.6	–	–
> 100	–	lucyoside F [Compound 22]	146 ± 12.7	–	–
> 100	–	lucyoside H [Compound 23]	131 ± 10	–	–
> 100	–	paritriside E [Compound 27]	133 ± 11.8	–	–
> 100	–	tragopogonsaponin A methyl ester [Compound 14]	585 ± 45.6	–	–
